Tested on: normal human lung fibroblasts
Experiment: Ribosomal profiling: translational efficiency in TGFβ-treated fibroblasts
Format: cell-based
Conditions: TGFβ-treated fibroblasts
Description: Ribosomal profiling allows for measurement of changes in transcription and translation on a genome-wide basis accompanying TGFβ-dependent transformation of fibroblasts to myofibroblasts. Ribosomal profiles of the TGFβ-treated fibroblasts from Example 1 (about 6×10^6 cells/10 cm plate) were prepared and analyzed for changes in translational efficiencies with respect to potential disease-associated cellular changes accompanying this TGFβ-induced transformation.
Briefly, cells were washed with cold PBS supplemented with cycloheximide and lysed with 1× mammalian cell lysis buffer for 10 minutes on ice. Lysates were clarified by centrifugation for 10 minutes at 14,000 rpm and supernatants were collected. Cell lysates were processed to generate ribosomal protected fragments and total mRNA according to the instructions included with the ARTseq Ribosome Profiling Kit (Illumina, San Diego, Calif.). Sequencing of total RNA (RNA) and of ribosome-protected fragments of RNA (RPF) was carried out using RNA-Seq methodology according to the manufacturer's instructions (Illumina). To analyze the ribosomal profiles, RNA-Seq reads were processed with tools from the FASTX-Toolkit (fastq_quality_trimmer, fastx_clipper and fastx_trimmer). Unprocessed and processed reads were evaluated for a variety of quality measures using FastQC, and processed reads were mapped to the human genome using TopHat (see, e.g., Trapnell et al., Bioinformatics 25:1105, 2009). Gene-by-gene assessment of the number of fragments strictly and uniquely mapping to the coding region of each gene was conducted using HTSeq-count, a component of the HTSeq package. […] Genes with low counts in either RPF or RNA were excluded from differential analyses. Pathway and network analyses of differential data were conducted using Ingenuity Pathway Analysis (IPA).

## Cc1cc(C2CCCCC2)n(O)c(=O)c1.NCCO [CPX, ciclopirox oloamine]
ENSG00000163682
  renormalizing the translational profile of RPL9: − (− = <0.9)
ENSG00000164292
  renormalizing the translational profile of RHOBTB3: − (− = <0.9)
ENSG00000165502
  renormalizing the translational profile of RPL36AL: − (− = <0.9)
ENSG00000166441
  renormalizing the translational profile of RPL27A: − (− = <0.9)
ENSG00000166503
  renormalizing the translational profile of RP11-382A20.3.1: − (− = <0.9)
ENSG00000166839
  renormalizing the translational profile of ANKDD1A: − (− = <0.9)
ENSG00000167526
  renormalizing the translational profile of RPL13: − (− = <0.9)
ENSG00000167658
  renormalizing the translational profile of EEF2: − (− = <0.9)
ENSG00000169239
  renormalizing the translational profile of CA5B: − (− = <0.9)
ENSG00000169330
  renormalizing the translational profile of KIAA1024: − (− = <0.9)
ENSG00000170681
  renormalizing the translational profile of MURC: − (− = <0.9)
ENSG00000170801
  renormalizing the translational profile of HTRA3: − (− = <0.9)
ENSG00000171408
  renormalizing the translational profile of PDE7B: − (− = <0.9)
ENSG00000171517
  renormalizing the translational profile of LPAR3: − (− = <0.9)
ENSG00000171793
  renormalizing the translational profile of CTPS: − (− = <0.9)
ENSG00000172053
  renormalizing the translational profile of QARS: − (− = <0.9)
ENSG00000172809
  renormalizing the translational profile of RPL38: − (− = <0.9)
ENSG00000174100
  renormalizing the translational profile of MRPL45: − (− = <0.9)
ENSG00000174444
  renormalizing the translational profile of RPL4: − (− = <0.9)
ENSG00000174748
  renormalizing the translational profile of RPL15: − (− = <0.9)
ENSG00000175084
  renormalizing the translational profile of DES: − (− = <0.9)
ENSG00000175390
  renormalizing the translational profile of EIF3F: − (− = <0.9)
ENSG00000175505
  renormalizing the translational profile of CLCF1: − (− = <0.9)
ENSG00000176020
  renormalizing the translational profile of AMIGO3: − (− = <0.9)
ENSG00000176438
  renormalizing the translational profile of C14orf49: − (− = <0.9)
ENSG00000177600
  renormalizing the translational profile of RPLP2: − (− = <0.9)
ENSG00000178035
  renormalizing the translational profile of IMPDH2: − (− = <0.9)
ENSG00000178401
  renormalizing the translational profile of DNAJC22: − (− = <0.9)
ENSG00000182899
  renormalizing the translational profile of RPL35A: − (− = <0.9)
ENSG00000182909
  renormalizing the translational profile of LENG9: − (− = <0.9)
ENSG00000183172
  renormalizing the translational profile of C22orf32: − (− = <0.9)
ENSG00000184588
  renormalizing the translational profile of PDE4B: − (− = <0.9)
ENSG00000185008
  renormalizing the translational profile of ROBO2: + (+ = 0.9 to 1.5)
ENSG00000185920
  renormalizing the translational profile of PTCH1: − (− = <0.9)
ENSG00000186184
  renormalizing the translational profile of POLR1D: − (− = <0.9)
ENSG00000187240
  renormalizing the translational profile of DYNC2H1: − (− = <0.9)
ENSG00000188846
  renormalizing the translational profile of RPL14: − (− = <0.9)
ENSG00000188906
  renormalizing the translational profile of LRRK2: − (− = <0.9)
ENSG00000196531
  renormalizing the translational profile of NACA: − (− = <0.9)
ENSG00000196878
  renormalizing the translational profile of LAMB3: + (+ = 0.9 to 1.5)
ENSG00000197111
  renormalizing the translational profile of PCBP2: − (− = <0.9)
ENSG00000197442
  renormalizing the translational profile of MAP3K5: − (− = <0.9)
ENSG00000197756
  renormalizing the translational profile of RPL37A: − (− = <0.9)
ENSG00000197958
  renormalizing the translational profile of RPL12: − (− = <0.9)
ENSG00000198121
  renormalizing the translational profile of LPAR1: − (− = <0.9)
ENSG00000198242
  renormalizing the translational profile of RPL23A: − (− = <0.9)
ENSG00000198523
  renormalizing the translational profile of PLN: − (− = <0.9)
ENSG00000198755
  renormalizing the translational profile of RPL10A: − (− = <0.9)
ENSG00000198848
  renormalizing the translational profile of CES1: + (+ = 0.9 to 1.5)
ENSG00000198918
  renormalizing the translational profile of RPL39: − (− = <0.9)
ENSG00000204397
  renormalizing the translational profile of CARD16: − (− = <0.9)
ENSG00000204520
  renormalizing the translational profile of MICA: − (− = <0.9)
ENSG00000204628
  renormalizing the translational profile of GNB2L1: − (− = <0.9)
ENSG00000215472
  renormalizing the translational profile of RPL17: − (− = <0.9)
ENSG00000229117
  renormalizing the translational profile of RPL41: − (− = <0.9)
ENSG00000241685
  renormalizing the translational profile of ARPC1A: − (− = <0.9)
ENSG00000250479
  renormalizing the translational profile of CHCHD10: − (− = <0.9)
ENSG00000254772
  renormalizing the translational profile of EEF1G: − (− = <0.9)
Duplicate ribosomal profiles
  number of genes whose translational efficiency was uniquely modulated by the compound: six
Gene RPS2 (ENSG00000140988)
  effect in renormalizing the translational profile of the gene: − (− = <0.9)
Gene RPS3 (ENSG00000149273)
  effect in renormalizing the translational profile of the gene: − (− = <0.9)
Gene RPS3A (ENSG00000145425)
  effect in renormalizing the translational profile of the gene: − (− = <0.9)
Gene RPS4X (ENSG00000198034)
  effect in renormalizing the translational profile of the gene: − (− = <0.9)
Gene RPS4Y1 (ENSG00000129824)
  effect in renormalizing the translational profile of the gene: − (− = <0.9)
Gene RPS5 (ENSG00000083845)
  effect in renormalizing the translational profile of the gene: − (− = <0.9)

— patent US9993494B2, “Compositions and methods for treating fibrotic disease” (eFFECTOR Therapeutics, Inc., priority 2014, dated 2018)
